Test results: patent US20210093645A1, “COMBINATION ANTI CANCER THERAPY WITH AN IAP ANTAGONIST AND AN ANTI PD-1 MOLECULE” (Debiopharm International S.A., priority 2017, published 2021)
“Also recorded” adds a separate entry of the source. Numbered stars: 1 amine (or outer) side, 2 acyl side, 3 side chain; on linkers, the order of the positions; unused ones are H or OH. Bridge positions count the residues as written; N and C are the ends. Square brackets hold non-standard residues; d marks the D form. Peptide text beside a SMILES is read from it. I, II: the chains in the order shown. Hexamethylenediamine = C(CCCN[*:2])CCN[*:1]; Dip = N[C@H](C(=O)O)C(c1ccccc1)c1ccccc1; Chg = N[C@H](C(=O)O)C1CCCCC1; NMeA = CN[C@@H](C)C(=O)O

Experiments:
antigen-presenting cells = conditions: cited from earlier work
[1] = tested on: syngeneic colon carcinoma cell line MC38; test: MC38 syngeneic tumor model, Debio 1143 pretreatment then anti-PD-L1 (Example 2); format: in vivo, C57BL/6J mice
Description: Five groups (n=8) of adult female C57BL/6J mice (obtained from Shanghai Lingchang Bio-Technology Co.) were inoculated in the right lower flank with 1×10^6 cells of the syngeneic colon carcinoma cell line MC38. When average tumor size reached about 50 mm^3 (day 1), animals received either pretreatment consisting of p.o. SMAC mimetic Debio 1143 (Debiopharm) at a dose of 100 mg/kg or vehicle as indicated in Table 1. The dosing was repeated on each day for 7 days (day 1-7). On the subsequent day (day 8), animals of a vehicle-treated group and a Debio 1143-pretreated group were given i.p. 10 mg/kg of control antibody rlgG2b (Clone: LTF-2, BioXcell). Control antibody was administered twice weekly until the end of the study. Another set of two groups (vehicle- and Debio 1143-pretreated animals) received i.p. 10 mg/kg of anti-PD-L1 antibody (Mouse surrogate antibody, anti-mouse PD-L1, Clone: 10F.9G2, BioXcell). Administration was repeated twice weekly as for the control antibody. A final group of Debio 1143-pretreated animals received both anti-PD-L1 antibody as well as was continued on daily Debio 1143. Tumor volumes and body weights were assessed trice weekly. Tumor size was measured in two dimensions using a caliper, and the volume was expressed in mm^3 using the formula: V=0.5 a×b^2 where a and b are the long and short diameters of the tumor, respectively.

CD4+ T-lymphocytes = test: immunohistochemistry of tumor biopsies before and after Debio 1143, CD4 staining; format: in vivo, human; conditions: head & neck cancer patients, n=12; 200 mg Debio 1143 p.o. daily day 1 to 15; biopsy after vs before treatment
Description: (§1) The study enrolled adult patients with newly diagnosed histologically proven squamous cell carcinoma of the oral cavity, oropharynx, hypopharynx or larynx. During a screening period of two weeks (days −14 to −1), a tumor biopsy was taken and analyzed. Treatment was from day 1 to day 15 (+/−2 days) and consisted (in one arm) of daily administration p.o. of 200 mg Debio 1143. At the end of this treatment period, a second tumor biopsy was taken and analyzed, and the patients underwent surgery. T cells were identified using CD3 rabbit mAb 2GV6 from Ventana Roche (provided as a ready-to-use solution). Slides were processed on a Ventana Benchmark Ultra automaton. Exposure to antibody was 20 min. Pretreatment of the slides (64 min) was with cell conditioning solution CC1 (Ventana); the Optiview system (Ventana) (chromogen: DAB) was employed for visualization of the signal. Staining of CD8 and CD4 T cells was by the same protocol. The CD8 antibody was the SP57 rabbit mAb, and the CD4 antibody was the SP35 rabbit mAb. Both antibodies were from Ventana Roche and were provided as ready-to-use solutions. The antibody selected for PD-1 detection was the NAT105 mouse mAb that was also provided as a ready-to-use solution (Cell Marque). The protocol for PD-1 detection was the same as that used for CD3 staining, except that antibody exposure and pretreatment times were each 16 min.

PD-L1 = test: immunohistochemistry of tumor biopsies before and after Debio 1143, PD-L1 staining; format: in vivo, human; conditions: head & neck cancer patients, n=12; 200 mg Debio 1143 p.o. daily day 1 to 15; biopsy after vs before treatment
Description: (§2) The study enrolled adult patients with newly diagnosed histologically proven squamous cell carcinoma of the oral cavity, oropharynx, hypopharynx or larynx. During a screening period of two weeks (days −14 to −1), a tumor biopsy was taken and analyzed. Treatment was from day 1 to day 15 (+/−2 days) and consisted (in one arm) of daily administration p.o. of 200 mg Debio 1143. At the end of this treatment period, a second tumor biopsy was taken and analyzed, and the patients underwent surgery. Biopsies were analyzed by immunohistochemical methods. Staining for cIAP1 was carried out using a Dako autostainer automaton (Agilent). The EPR4673 […] mAb (Abcam) was utilized at a 1/100 dilution, and tissue slides were exposed to the antibody for 20 min. Pretreatment of the slides was with EnVision FLEX Target Retrieval Solution, Low pH; the EnVision FLEX system (chromogen: DAB) was employed for visualization of the signal. EnVision Flex system and reagent were from Agilent. The same protocol was applied for PD-L1 staining. The E1 L3N rabbit mAb (Cell Signaling Technology) was used at a 1/500 dilution.

cIAP1 = target: T1, cIAP1 (Homo sapiens, UniProt Q13490); test: immunohistochemistry of tumor biopsies before and after Debio 1143, cIAP1 staining; format: in vivo; conditions: head & neck cancer patients, n=12; 200 mg Debio 1143 p.o. daily day 1 to 15; biopsy after vs before treatment
T1 construct: from tissue; host or cells: tumor biopsies of patients with squamous cell carcinoma of the head and neck
T1 sequence (Q13490 whole entry): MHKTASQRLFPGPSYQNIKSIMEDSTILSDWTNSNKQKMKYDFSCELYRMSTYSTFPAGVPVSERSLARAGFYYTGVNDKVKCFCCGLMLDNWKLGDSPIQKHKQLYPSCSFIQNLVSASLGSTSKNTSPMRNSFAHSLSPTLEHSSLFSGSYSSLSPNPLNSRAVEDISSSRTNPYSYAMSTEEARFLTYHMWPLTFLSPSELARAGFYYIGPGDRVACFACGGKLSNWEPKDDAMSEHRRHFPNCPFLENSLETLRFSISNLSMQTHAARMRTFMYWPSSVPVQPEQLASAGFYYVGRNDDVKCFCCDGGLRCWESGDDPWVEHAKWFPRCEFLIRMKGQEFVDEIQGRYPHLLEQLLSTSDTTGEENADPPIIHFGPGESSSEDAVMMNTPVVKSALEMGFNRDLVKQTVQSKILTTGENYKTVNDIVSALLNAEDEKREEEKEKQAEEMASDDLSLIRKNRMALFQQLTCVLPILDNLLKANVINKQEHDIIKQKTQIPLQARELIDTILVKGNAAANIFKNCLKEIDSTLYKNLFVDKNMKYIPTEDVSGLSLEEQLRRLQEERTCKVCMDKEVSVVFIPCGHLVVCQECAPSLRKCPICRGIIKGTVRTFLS
Description: as §2

PD-1 = test: immunohistochemistry of tumor biopsies before and after Debio 1143, PD-1 staining; format: in vivo, human; conditions: head & neck cancer patients, n=12; 200 mg Debio 1143 p.o. daily day 1 to 15; biopsy after vs before treatment
Description: as §1

[2] = tested on: syngeneic colon carcinoma cell line CT26; test: CT26 syngeneic tumor model, Debio 1143 pretreatment then anti-PD-1 (Example 4); format: in vivo, BALB/c mice
Description: Five groups (n=8) of adult female BALB/c mice (obtained from Shanghai Lingchang Bio-Technology Co.) were inoculated in the right lower flank with 0.5×10^6 cells of the syngeneic colon carcinoma cell line CT26. When average tumor size reached about 50 mm^3 (day 1), animals received either pretreatment consisting of p.o. SMAC mimetic Debio 1143 (Debiopharm) at a dose of 100 mg/kg or vehicle as indicated in Table 3a. The dosing was repeated on each day for 7 days (day 1-7). […] Another set of two groups (vehicle- and Debio 1143-pretreated animals) received biweekly i.p. 10 mg/kg of anti-PD-1 antibody (Mouse surrogate antibody, anti-mouse PD-1, Clone: RMP1-14, BioXcell). A final group of Debio 1143-pretreated animals received both anti-PD-1 antibody as well as was continued on daily Debio 1143. Tumor volumes and body weights were assessed trice weekly. Tumor size was measured in two dimensions using a caliper, and the volume was expressed in mm^3 using the formula: V=0.5 a×b^2 where a and b are the long and short diameters of the tumor, respectively.

CD8+ T-lymphocytes = test: immunohistochemistry of tumor biopsies before and after Debio 1143, CD8 staining; format: in vivo, human; conditions: head & neck cancer patients, n=12; 200 mg Debio 1143 p.o. daily day 1 to 15; biopsy after vs before treatment
Description: as §1

[3] = in vivo; cited from earlier work
T-cell = conditions: in the context of a primary T-cell receptor stimulus; cited from earlier work
[4] = tested on: syngeneic colon carcinoma cell line MC-38; test: MC38 syngeneic tumor model, birinapant or LCL161 pretreatment then anti-PD-L1 (Example 3); format: in vivo, C57BL/6J mice
Description: 72 adult female C57BL/6J mice (obtained from Shanghai Lingchang Bio-Technology Co.) were inoculated subcutaneously at the right lower flank with 1×10^6 cells of the syngeneic colon carcinoma cell line MC-38 in 0.1 ml of PBS. Tumor volumes were measured three times weekly in two dimensions using a caliper, and the volume was expressed in mm^3 using the formula: V=(L×W×W)/2, where V is tumor volume, L is tumor length (the longest tumor dimension) and W is tumor width (the longest tumor dimension perpendicular to L). All animals were randomly allocated to the 9 different study groups with a mean tumor size of 52 mm^3 based on the “Matched distribution” randomization method (StudyDirector™ software, version 3.1.399.19) and treatments started (denoted as day 1). Dosing as well as tumor and body weight measurement were conducted in a Laminar Flow Cabinet.
On day 1, part of the animals received either a 1 week pretreatment consisting of i.p. SMAC mimetic birinapant at a dose of 30 mg/kg, or its vehicle, in a biweekly schedule as indicated in Table 2. The other part of the animals received either a 1 week pretreatment consisting of p.o. SMAC mimetic LCL161 at a dose of 75 mg/kg, or its vehicle, in a biweekly schedule as indicated in Table 2.
On day 8, vehicle or SMAC mimetic pretreated animals were then further treated until study end with either biweekly i.p. 10 mg/kg of control antibody rlgG2b (Clone: LTF-2, BioXcell), or biweekly i.p. 10 mg/kg of anti-PD-L1 antibody (Mouse surrogate antibody, anti-mouse PD-L1, Clone: 10F.9G2, BioXcell). 1 group of animals that had received 1 week of birinapant pretreatment, and 1 group of animals that had received 1 week of LCL161 pretreatment, were each continued on the respective SMAC mimetic during the period of anti-PD-L1 treatment until study end.

RCC = RCC patients; cited from earlier work
melanoma = melanoma patients; cited from earlier work
[5] = tested on: advanced treatment-refractory NSCLC; conditions: advanced treatment-refractory NSCLC patients; cited from earlier work

Compound: CN[C@@H](C)C(=O)N[C@H](C(=O)N1CCC[C@H]1C(=O)N[C@H](C(=O)NCCCCCCNC(=O)[C@@H](NC(=O)[C@@H]1CCCN1C(=O)[C@@H](NC(=O)[C@H](C)NC)C1CCCCC1)C(c1ccccc1)c1ccccc1)C(c1ccccc1)c1ccccc1)C1CCCCC1 [BV6] (I: H-[NMeA][Chg]P[Dip] / II: H-[NMeA][Chg]P[Dip]; linker I:C-II:C via Hexamethylenediamine)
- function of antigen-presenting cells (dendritic cell maturation, type-II to type-I macrophage conversion) (antigen-presenting cells): modulate the function of antigen-presenting cells

Compound: CN[C@@H](C)C(=O)N[C@H]1CN(C(=O)CC(C)C)CC[C@H]2CC[C@@H](C(=O)NC(c3ccccc3)c3ccccc3)N2C1=O [Debio 1143]
- anti-cancer effect (median tumor volume) ([1]; Debio 1143 100 mg/kg p.o. QD day 1-7 pretreatment alone, then control antibody rlgG2b (group 2)): modest anti-cancer effect
- anti-cancer effect (median tumor volume) ([1]; Debio 1143 100 mg/kg p.o. QD day 1-7 pretreatment, then anti-PD-L1 10 mg/kg i.p. BIW (group 4)): profound anti-cancer effect; also recorded: sensitizes MC38 tumors to a subsequent treatment with an anti-PD-L1 antibody
- anti-cancer effect (median tumor volume) ([1]; Debio 1143 pretreatment day 1-7, then anti-PD-L1 plus continued daily Debio 1143 (group 5), compared with group 4): small additional benefit
- number of CD4+ T cells in the tumor microenvironment (CD4+ T-lymphocytes): both increased; also recorded: increases the number
- frequency / number of PD-L1-expressing tumor cells (PD-L1): also increased; also recorded: increases the number
- percentage / number of immune cells expressing PD-L1 in tumor (PD-L1): increased significantly; also recorded: increases the number
- levels of cIAP1 in the tumors (cIAP1): reduced levels of cIAP1 in the tumors of most patients; also recorded: induces the degradation of cIAP1
- percentage / number of immune cells expressing PD-1 in tumor (PD-1): increased significantly; also recorded: increases the number
- anti-cancer effect (median tumor volume) ([2]; Debio 1143 100 mg/kg p.o. QD day 1-7 pretreatment alone, then oral vehicle (group 3)): modest anti-cancer effect
- anti-cancer effect (median tumor volume) ([2]; Debio 1143 100 mg/kg p.o. QD day 1-7 pretreatment, then anti-PD-1 10 mg/kg i.p. BIW (group 4)): small additional benefit to Debio 1143 pretreatment alone; also recorded: sensitizes CT26 tumors to a subsequent treatment with an anti-PD-1 antibody
- anti-cancer effect (median tumor volume) ([2]; Debio 1143 pretreatment, then anti-PD-1 plus continued daily Debio 1143 (group 5)): significant additional benefit
- number of CD8+ T cells in the tumor microenvironment (CD8+ T-lymphocytes): increase in CD8+ T cell number being significant; also recorded: increases the number

Compound: CN[C@@H](C)C(=O)N[C@H](C(=O)N1CC[C@H]2CCN(CCc3ccccc3)C[C@H]21)C1CCCCC1 [LBW242]
- efficacy in a prophylactic cancer vaccine model [3]: enhanced efficacy
- anti-tumor immune responses (T-cell proliferation, co-stimulation, activation) (T-cell): increase anti-tumor immune responses

Compound: CN[C@@H](C)C(=O)N[C@H](C(=O)N1CCC[C@H]1c1nc(C(=O)c2ccc(F)cc2)cs1)C1CCCCC1 [LCL161]
- anti-cancer effect (median tumor volume) ([4]; LCL161 75 mg/kg p.o. BIW 1 week pretreatment alone, then control antibody rlgG2b (group 7)): modest anti-cancer effect
- anti-cancer effect (median tumor volume) ([4]; LCL161 75 mg/kg p.o. BIW 1 week pretreatment, then anti-PD-L1 10 mg/kg i.p. BIW (group 8)): small additional benefit to LCL161 pretreatment alone; also recorded: sensitizes MC38 tumors to a subsequent treatment with an anti-PD-L1 antibody
- anti-cancer effect (median tumor volume) ([4]; LCL161 pretreatment, then anti-PD-L1 plus continued LCL161 (group 9)): significant additional benefit

Compound: CC[C@H](NC(=O)[C@H](C)NC)C(=O)N1C[C@@H](O)C[C@H]1Cc1c(-c2[nH]c3cc(F)ccc3c2C[C@@H]2C[C@H](O)CN2C(=O)[C@H](CC)NC(=O)[C@H](C)NC)[nH]c2cc(F)ccc12 [birinapant]
- function of antigen-presenting cells (dendritic cell maturation, type-II to type-I macrophage conversion) (antigen-presenting cells): modulate the function of antigen-presenting cells
- anti-cancer effect (median tumor volume) ([4]; birinapant 30 mg/kg i.p. BIW 1 week pretreatment alone, then control antibody rlgG2b (group 2)): modest anti-cancer effect
- anti-cancer effect (median tumor volume) ([4]; birinapant 30 mg/kg i.p. BIW 1 week pretreatment, then anti-PD-L1 10 mg/kg i.p. BIW (group 4)): singificant anti-cancer effect; also recorded: sensitizes MC38 tumors to a subsequent treatment with an anti-PD-L1 antibody
- anti-cancer effect (median tumor volume) ([4]; birinapant pretreatment, then anti-PD-L1 plus continued birinapant (group 5), compared with group 4): small additional benefit

Compound: Nivolumab: fully human IgG4 anti-PD-1 monoclonal antibody from Bristol-Myers Squibb/Ono Pharmaceuticals
- Objective response rate (RCC): 20%
- Overall survival (RCC): 22.4 months
- Objective response rate (melanoma): 31%
- Overall survival (melanoma): 16.8 months
- Objective response rate [5]: 17%
- Overall survival [5]: 9.9 months
